From patent publication US10765114B2, “4-amino-6-(pyridyl and 2-substitutedphenyl)-picolinates and 6-amino-2-(pyridyl and 2-substitutedphenyl)-pyrimidine-4-carboxylates and their use as herbicides” (Dow AgroSciences LLC, priority 2013, dated 2020)

The compounds below were run on Key Broadleaf Weed and Crop Species (assay: Post-Emergent Test II (Table 5)). Conditions: Abutilon theophrasti, post-emergence, 336 h, ABUTH: velvetleaf (Abutilon theophrasti), application rate 70 (kg ai/ha; footnote: g ai/ha), read-out: Visual Growth Reduction (%) 14 Days After Application ABUTH.
Type: in vivo
In short: (§1)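 Visual injury ratings (0 = no injury, 100 = complete kill) were taken 14 days after treatment relative to untreated plants. Seedlings at the first or second true leaf stage received an overhead spray at 187 L/ha, and solvent-blank sprayed plants served as controls.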

SMILES | pest or weed control at 70 g/ha
Cc1c(-c2cc(N)c(Cl)c(C(=O)O)n2)ccc(C(F)(F)F)c1F [Compound 61, 4-amino-3-chloro-6-(3-fluoro-2-methyl-4-(trifluoromethyl)phenyl)picolinic acid] | 85 to 94%

Same assay, conditions: Abutilon theophrasti, post-emergence, 336 h, ABUTH: velvetleaf (Abutilon theophrasti), application rate 140 (kg ai/ha; footnote: g ai/ha), read-out: Visual Growth Reduction (%) 14 Days After Application ABUTH

SMILES | pest or weed control at 140 g/ha
Cc1c(-c2cc(N)c(Cl)c(C(=O)O)n2)ccc(C(F)(F)F)c1F [Compound 61, 4-amino-3-chloro-6-(3-fluoro-2-methyl-4-(trifluoromethyl)phenyl)picolinic acid] | 85 to 94%

Same assay, conditions: Amaranthus retroflexus, post-emergence, 336 h, AMARE: redroot pigweed (Amaranthus retroflexus), application rate 70 (kg ai/ha; footnote: g ai/ha), read-out: Visual Growth Reduction (%) 14 Days After Application AMARE

SMILES | pest or weed control at 70 g/ha
Cc1c(-c2cc(N)c(Cl)c(C(=O)O)n2)ccc(C(F)(F)F)c1F [Compound 61, 4-amino-3-chloro-6-(3-fluoro-2-methyl-4-(trifluoromethyl)phenyl)picolinic acid] | 0 to 29%

Same assay, conditions: Amaranthus retroflexus, post-emergence, 336 h, AMARE: redroot pigweed (Amaranthus retroflexus), application rate 140 (kg ai/ha; footnote: g ai/ha), read-out: Visual Growth Reduction (%) 14 Days After Application AMARE

SMILES | pest or weed control at 140 g/ha
Cc1c(-c2cc(N)c(Cl)c(C(=O)O)n2)ccc(C(F)(F)F)c1F [Compound 61, 4-amino-3-chloro-6-(3-fluoro-2-methyl-4-(trifluoromethyl)phenyl)picolinic acid] | 0 to 29%

Same assay, conditions: Brassica napus, post-emergence, 336 h, BRSSS: oilseed rape, canola (Brassica napus), application rate 70 (kg ai/ha; footnote: g ai/ha), read-out: Visual Growth Reduction (%) 14 Days After Application BRSSS

SMILES | pest or weed control at 70 g/ha
Cc1c(-c2cc(N)c(Cl)c(C(=O)O)n2)ccc(C(F)(F)F)c1F [Compound 61, 4-amino-3-chloro-6-(3-fluoro-2-methyl-4-(trifluoromethyl)phenyl)picolinic acid] | 45 to 59%

Same assay, conditions: Brassica napus, post-emergence, 336 h, BRSSS: oilseed rape, canola (Brassica napus), application rate 140 (kg ai/ha; footnote: g ai/ha), read-out: Visual Growth Reduction (%) 14 Days After Application BRSSS

SMILES | pest or weed control at 140 g/ha
Cc1c(-c2cc(N)c(Cl)c(C(=O)O)n2)ccc(C(F)(F)F)c1F [Compound 61, 4-amino-3-chloro-6-(3-fluoro-2-methyl-4-(trifluoromethyl)phenyl)picolinic acid] | 60 to 74%

Same assay, conditions: Chenopodium album, post-emergence, 336 h, CHEAL: lambsquarters (Chenopodium album), application rate 70 (kg ai/ha; footnote: g ai/ha), read-out: Visual Growth Reduction (%) 14 Days After Application CHEAL

SMILES | pest or weed control at 70 g/ha
Cc1c(-c2cc(N)c(Cl)c(C(=O)O)n2)ccc(C(F)(F)F)c1F [Compound 61, 4-amino-3-chloro-6-(3-fluoro-2-methyl-4-(trifluoromethyl)phenyl)picolinic acid] | 85 to 94%

Same assay, conditions: Chenopodium album, post-emergence, 336 h, CHEAL: lambsquarters (Chenopodium album), application rate 140 (kg ai/ha; footnote: g ai/ha), read-out: Visual Growth Reduction (%) 14 Days After Application CHEAL

SMILES | pest or weed control at 140 g/ha
Cc1c(-c2cc(N)c(Cl)c(C(=O)O)n2)ccc(C(F)(F)F)c1F [Compound 61, 4-amino-3-chloro-6-(3-fluoro-2-methyl-4-(trifluoromethyl)phenyl)picolinic acid] | 85 to 94%

Same assay, conditions: Euphorbia heterophylla, post-emergence, 336 h, EPHHL: wild poinsettia (Euphorbia heterophylla), application rate 70 (kg ai/ha; footnote: g ai/ha), read-out: Visual Growth Reduction (%) 14 Days After Application EPHHL

SMILES | pest or weed control at 70 g/ha
Cc1c(-c2cc(N)c(Cl)c(C(=O)O)n2)ccc(C(F)(F)F)c1F [Compound 61, 4-amino-3-chloro-6-(3-fluoro-2-methyl-4-(trifluoromethyl)phenyl)picolinic acid] | 95 to 100%

Same assay, conditions: Euphorbia heterophylla, post-emergence, 336 h, EPHHL: wild poinsettia (Euphorbia heterophylla), application rate 140 (kg ai/ha; footnote: g ai/ha), read-out: Visual Growth Reduction (%) 14 Days After Application EPHHL

SMILES | pest or weed control at 140 g/ha
Cc1c(-c2cc(N)c(Cl)c(C(=O)O)n2)ccc(C(F)(F)F)c1F [Compound 61, 4-amino-3-chloro-6-(3-fluoro-2-methyl-4-(trifluoromethyl)phenyl)picolinic acid] | 95 to 100%

Same assay, conditions: Helianthus annuus, post-emergence, 336 h, HELAN: sunflower (Helianthus annuus), application rate 70 (kg ai/ha; footnote: g ai/ha), read-out: Visual Growth Reduction (%) 14 Days After Application HELAN

SMILES | pest or weed control at 70 g/ha
Cc1c(-c2cc(N)c(Cl)c(C(=O)O)n2)ccc(C(F)(F)F)c1F [Compound 61, 4-amino-3-chloro-6-(3-fluoro-2-methyl-4-(trifluoromethyl)phenyl)picolinic acid] | 85 to 94%

Same assay, conditions: Helianthus annuus, post-emergence, 336 h, HELAN: sunflower (Helianthus annuus), application rate 140 (kg ai/ha; footnote: g ai/ha), read-out: Visual Growth Reduction (%) 14 Days After Application HELAN

SMILES | pest or weed control at 140 g/ha
Cc1c(-c2cc(N)c(Cl)c(C(=O)O)n2)ccc(C(F)(F)F)c1F [Compound 61, 4-amino-3-chloro-6-(3-fluoro-2-methyl-4-(trifluoromethyl)phenyl)picolinic acid] | 85 to 94%

Same assay, conditions: Viola tricolor, post-emergence, 336 h, VIOTR: wild pansy (Viola tricolor), application rate 70 (kg ai/ha; footnote: g ai/ha), read-out: Visual Growth Reduction (%) 14 Days After Application VIOTR

SMILES | pest or weed control at 70 g/ha
Cc1c(-c2cc(N)c(Cl)c(C(=O)O)n2)ccc(C(F)(F)F)c1F [Compound 61, 4-amino-3-chloro-6-(3-fluoro-2-methyl-4-(trifluoromethyl)phenyl)picolinic acid] | 0 to 29%

Same assay, conditions: Viola tricolor, post-emergence, 336 h, VIOTR: wild pansy (Viola tricolor), application rate 140 (kg ai/ha; footnote: g ai/ha), read-out: Visual Growth Reduction (%) 14 Days After Application VIOTR

SMILES | pest or weed control at 140 g/ha
Cc1c(-c2cc(N)c(Cl)c(C(=O)O)n2)ccc(C(F)(F)F)c1F [Compound 61, 4-amino-3-chloro-6-(3-fluoro-2-methyl-4-(trifluoromethyl)phenyl)picolinic acid] | 0 to 29%

These compounds were tested on Key Grass and Sedge Weeds as well as Grass Crops (assay: Post-Emergent Test II (Table 6)). Conditions: post-emergence, 336 h, DIGSA: crabgrass (Digitaria sanguinalis), 70 g ai/ha, 14 days after application, read-out: Visual Growth Reduction (%) 14 Days After Application DIGSA.
Type: in vivo
In short: as §1

SMILES | pest or weed control at 70 g/ha
Cc1c(-c2cc(N)c(Cl)c(C(=O)O)n2)ccc(C(F)(F)F)c1F [Compound 61, 4-amino-3-chloro-6-(3-fluoro-2-methyl-4-(trifluoromethyl)phenyl)picolinic acid] | 0 to 29%

Same assay, conditions: post-emergence, 336 h, DIGSA: crabgrass (Digitaria sanguinalis), 140 g ai/ha, 14 days after application, read-out: Visual Growth Reduction (%) 14 Days After Application DIGSA

SMILES | pest or weed control at 140 g/ha
Cc1c(-c2cc(N)c(Cl)c(C(=O)O)n2)ccc(C(F)(F)F)c1F [Compound 61, 4-amino-3-chloro-6-(3-fluoro-2-methyl-4-(trifluoromethyl)phenyl)picolinic acid] | 0 to 29%

Same assay, conditions: post-emergence, 336 h, ECHSS, 70 g ai/ha, 14 days after application, read-out: Visual Growth Reduction (%) 14 Days After Application ECHSS

SMILES | pest or weed control at 70 g/ha
Cc1c(-c2cc(N)c(Cl)c(C(=O)O)n2)ccc(C(F)(F)F)c1F [Compound 61, 4-amino-3-chloro-6-(3-fluoro-2-methyl-4-(trifluoromethyl)phenyl)picolinic acid] | 85 to 94%

Same assay, conditions: post-emergence, 336 h, ECHSS, 140 g ai/ha, 14 days after application, read-out: Visual Growth Reduction (%) 14 Days After Application ECHSS

SMILES | pest or weed control at 140 g/ha
Cc1c(-c2cc(N)c(Cl)c(C(=O)O)n2)ccc(C(F)(F)F)c1F [Compound 61, 4-amino-3-chloro-6-(3-fluoro-2-methyl-4-(trifluoromethyl)phenyl)picolinic acid] | 85 to 94%

Same assay, conditions: post-emergence, 336 h, ORYSS (crop), 70 g ai/ha, 14 days after application, read-out: Visual Growth Reduction (%) 14 Days After Application ORYSS

SMILES | pest or weed control at 70 g/ha
Cc1c(-c2cc(N)c(Cl)c(C(=O)O)n2)ccc(C(F)(F)F)c1F [Compound 61, 4-amino-3-chloro-6-(3-fluoro-2-methyl-4-(trifluoromethyl)phenyl)picolinic acid] | 0 to 29%

Same assay, conditions: post-emergence, 336 h, ORYSS (crop), 140 g ai/ha, 14 days after application, read-out: Visual Growth Reduction (%) 14 Days After Application ORYSS

SMILES | pest or weed control at 140 g/ha
Cc1c(-c2cc(N)c(Cl)c(C(=O)O)n2)ccc(C(F)(F)F)c1F [Compound 61, 4-amino-3-chloro-6-(3-fluoro-2-methyl-4-(trifluoromethyl)phenyl)picolinic acid] | 0 to 29%

Same assay, conditions: post-emergence, 336 h, SETFA: giant foxtail (Setaria faberi), 70 g ai/ha, 14 days after application, read-out: Visual Growth Reduction (%) 14 Days After Application SETFA

SMILES | pest or weed control at 70 g/ha
Cc1c(-c2cc(N)c(Cl)c(C(=O)O)n2)ccc(C(F)(F)F)c1F [Compound 61, 4-amino-3-chloro-6-(3-fluoro-2-methyl-4-(trifluoromethyl)phenyl)picolinic acid] | 45 to 59%

Same assay, conditions: post-emergence, 336 h, SETFA: giant foxtail (Setaria faberi), 140 g ai/ha, 14 days after application, read-out: Visual Growth Reduction (%) 14 Days After Application SETFA

SMILES | pest or weed control at 140 g/ha
Cc1c(-c2cc(N)c(Cl)c(C(=O)O)n2)ccc(C(F)(F)F)c1F [Compound 61, 4-amino-3-chloro-6-(3-fluoro-2-methyl-4-(trifluoromethyl)phenyl)picolinic acid] | 60 to 74%

Same assay, conditions: post-emergence, 336 h, SORVU: grain sorghum (Sorghum vulgare), 70 g ai/ha, 14 days after application, read-out: Visual Growth Reduction (%) 14 Days After Application SORVU

SMILES | pest or weed control at 70 g/ha
Cc1c(-c2cc(N)c(Cl)c(C(=O)O)n2)ccc(C(F)(F)F)c1F [Compound 61, 4-amino-3-chloro-6-(3-fluoro-2-methyl-4-(trifluoromethyl)phenyl)picolinic acid] | 0 to 29%

Same assay, conditions: post-emergence, 336 h, SORVU: grain sorghum (Sorghum vulgare), 140 g ai/ha, 14 days after application, read-out: Visual Growth Reduction (%) 14 Days After Application SORVU

SMILES | pest or weed control at 140 g/ha
Cc1c(-c2cc(N)c(Cl)c(C(=O)O)n2)ccc(C(F)(F)F)c1F [Compound 61, 4-amino-3-chloro-6-(3-fluoro-2-methyl-4-(trifluoromethyl)phenyl)picolinic acid] | 0 to 29%

Same assay, conditions: post-emergence, 336 h, TRZSS (crop), 70 g ai/ha, 14 days after application, read-out: Visual Growth Reduction (%) 14 Days After Application TRZSS

SMILES | pest or weed control at 70 g/ha
Cc1c(-c2cc(N)c(Cl)c(C(=O)O)n2)ccc(C(F)(F)F)c1F [Compound 61, 4-amino-3-chloro-6-(3-fluoro-2-methyl-4-(trifluoromethyl)phenyl)picolinic acid] | 0 to 29%

Same assay, conditions: post-emergence, 336 h, TRZSS (crop), 140 g ai/ha, 14 days after application, read-out: Visual Growth Reduction (%) 14 Days After Application TRZSS

SMILES | pest or weed control at 140 g/ha
Cc1c(-c2cc(N)c(Cl)c(C(=O)O)n2)ccc(C(F)(F)F)c1F [Compound 61, 4-amino-3-chloro-6-(3-fluoro-2-methyl-4-(trifluoromethyl)phenyl)picolinic acid] | 30 to 44%

Same assay, conditions: post-emergence, 336 h, ZEAMX: maize, corn (Zea mays), 70 g ai/ha, 14 days after application, read-out: Visual Growth Reduction (%) 14 Days After Application ZEAMX

SMILES | pest or weed control at 70 g/ha
Cc1c(-c2cc(N)c(Cl)c(C(=O)O)n2)ccc(C(F)(F)F)c1F [Compound 61, 4-amino-3-chloro-6-(3-fluoro-2-methyl-4-(trifluoromethyl)phenyl)picolinic acid] | 0 to 29%

Same assay, conditions: post-emergence, 336 h, ZEAMX: maize, corn (Zea mays), 140 g ai/ha, 14 days after application, read-out: Visual Growth Reduction (%) 14 Days After Application ZEAMX

SMILES | pest or weed control at 140 g/ha
Cc1c(-c2cc(N)c(Cl)c(C(=O)O)n2)ccc(C(F)(F)F)c1F [Compound 61, 4-amino-3-chloro-6-(3-fluoro-2-methyl-4-(trifluoromethyl)phenyl)picolinic acid] | 0 to 29%
